Test results reported in the kinase profiling compilation of Christmann-Franck et al. (2016).

Legend:
Assay in all cases: Caliper, Mobility shift assay off-chip
DYRK1A (human) = DYRK1A (human) (UniProt Q13627)
MARK3 (human) = MARK3 (human) (UniProt P27448)
[1] = tested on: FLT3 (human), P36888 [D835Y]
MAPK3 (human) = MAPK3 (human) (UniProt P27361)
CHEK1 (human) = CHEK1 (human) (UniProt O14757)
RPS6KA1 KD1 KD2 (human) = RPS6KA1 KD1 KD2 (human) (UniProt Q15418)
MAPK13 (human) = MAPK13 (human) (UniProt O15264)
GSK3B (human) = GSK3B (human) (UniProt P49841)
CSNK1A1 (human) = CSNK1A1 (human) (UniProt P48729)
MAPKAPK2 (human) = MAPKAPK2 (human) (UniProt P49137)
MAPKAPK2 (human), sequence (P49137 whole entry, looked up): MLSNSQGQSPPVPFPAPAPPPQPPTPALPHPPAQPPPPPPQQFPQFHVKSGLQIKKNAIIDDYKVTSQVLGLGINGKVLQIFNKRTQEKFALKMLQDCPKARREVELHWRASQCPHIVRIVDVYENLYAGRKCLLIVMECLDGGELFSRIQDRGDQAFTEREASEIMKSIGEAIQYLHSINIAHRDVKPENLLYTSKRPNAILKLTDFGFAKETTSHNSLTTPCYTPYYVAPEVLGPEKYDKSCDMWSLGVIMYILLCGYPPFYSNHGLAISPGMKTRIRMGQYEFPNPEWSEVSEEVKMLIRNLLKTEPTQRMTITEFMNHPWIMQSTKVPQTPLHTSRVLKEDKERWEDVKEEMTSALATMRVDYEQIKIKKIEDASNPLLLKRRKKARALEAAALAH

PRKCH (human) = PRKCH (human) (UniProt P24723)
MAPKAPK5 (human) = MAPKAPK5 (human) (UniProt Q8IW41)
SYK (human) = SYK (human) (UniProt P43405)
PRKACA (human) = PRKACA (human) (UniProt P17612)
KDR (human) = KDR (human) (UniProt P35968)
[2] = tested on: ABL1 (human), P00519 [H396P]
EGFR (human) = EGFR (human) (UniProt P00533)
EGFR (human), sequence (P00533 whole entry, looked up): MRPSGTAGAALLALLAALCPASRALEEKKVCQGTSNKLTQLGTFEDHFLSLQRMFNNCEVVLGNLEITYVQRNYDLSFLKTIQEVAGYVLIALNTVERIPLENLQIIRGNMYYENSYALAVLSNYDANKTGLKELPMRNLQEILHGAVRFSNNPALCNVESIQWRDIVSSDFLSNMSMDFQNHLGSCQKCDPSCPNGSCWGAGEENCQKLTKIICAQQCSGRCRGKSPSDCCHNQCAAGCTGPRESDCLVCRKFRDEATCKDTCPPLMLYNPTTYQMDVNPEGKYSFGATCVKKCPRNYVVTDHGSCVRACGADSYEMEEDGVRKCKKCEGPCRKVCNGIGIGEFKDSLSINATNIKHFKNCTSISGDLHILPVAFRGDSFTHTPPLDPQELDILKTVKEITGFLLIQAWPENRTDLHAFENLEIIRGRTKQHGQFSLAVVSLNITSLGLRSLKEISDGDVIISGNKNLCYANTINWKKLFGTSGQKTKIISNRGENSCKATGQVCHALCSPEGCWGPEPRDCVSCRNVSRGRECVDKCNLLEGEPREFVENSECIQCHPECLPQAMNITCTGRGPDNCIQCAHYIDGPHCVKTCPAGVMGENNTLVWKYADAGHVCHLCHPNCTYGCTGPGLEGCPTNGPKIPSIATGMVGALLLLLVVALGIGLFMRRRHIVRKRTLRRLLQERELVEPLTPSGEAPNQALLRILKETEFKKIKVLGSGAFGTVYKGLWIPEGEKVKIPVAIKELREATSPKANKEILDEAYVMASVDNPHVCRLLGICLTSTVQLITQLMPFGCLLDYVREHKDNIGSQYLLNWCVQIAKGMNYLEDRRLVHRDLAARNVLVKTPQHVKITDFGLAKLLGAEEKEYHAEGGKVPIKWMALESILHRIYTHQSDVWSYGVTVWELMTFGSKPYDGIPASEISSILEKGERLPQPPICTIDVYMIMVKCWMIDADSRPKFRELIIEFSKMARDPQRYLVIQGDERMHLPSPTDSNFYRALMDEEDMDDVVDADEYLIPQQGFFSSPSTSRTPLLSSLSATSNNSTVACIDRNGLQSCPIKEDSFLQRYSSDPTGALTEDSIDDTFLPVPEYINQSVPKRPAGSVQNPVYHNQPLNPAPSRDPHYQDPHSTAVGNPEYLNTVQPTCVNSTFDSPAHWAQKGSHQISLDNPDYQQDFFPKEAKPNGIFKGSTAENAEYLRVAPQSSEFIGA

MAPK11 (human) = MAPK11 (human) (UniProt Q15759)
PRKCQ (human) = PRKCQ (human) (UniProt Q04759)
PIM2 (human) = PIM2 (human) (UniProt Q9P1W9)
LYN (human) = LYN (human) (UniProt P07948)
LYN (human), sequence (P07948 whole entry, looked up): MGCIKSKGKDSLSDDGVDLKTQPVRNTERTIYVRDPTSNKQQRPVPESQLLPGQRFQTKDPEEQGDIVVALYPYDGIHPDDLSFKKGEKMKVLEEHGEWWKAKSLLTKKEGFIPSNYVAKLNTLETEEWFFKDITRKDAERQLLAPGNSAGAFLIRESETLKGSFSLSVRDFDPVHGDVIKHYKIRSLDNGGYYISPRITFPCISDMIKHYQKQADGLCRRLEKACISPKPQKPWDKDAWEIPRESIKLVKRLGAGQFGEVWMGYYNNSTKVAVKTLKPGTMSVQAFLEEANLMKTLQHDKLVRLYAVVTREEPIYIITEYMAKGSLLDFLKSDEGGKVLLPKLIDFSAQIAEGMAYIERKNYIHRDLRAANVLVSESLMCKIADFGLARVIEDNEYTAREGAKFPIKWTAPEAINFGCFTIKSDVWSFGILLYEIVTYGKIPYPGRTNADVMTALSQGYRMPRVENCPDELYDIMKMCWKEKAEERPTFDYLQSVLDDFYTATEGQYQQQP

IRAK4 (human) = IRAK4 (human) (UniProt Q9NWZ3)
LCK (human) = LCK (human) (UniProt P06239)
MARK2 (human) = MARK2 (human) (UniProt Q7KZI7)
MARK2 (human), sequence (Q7KZI7 whole entry, looked up): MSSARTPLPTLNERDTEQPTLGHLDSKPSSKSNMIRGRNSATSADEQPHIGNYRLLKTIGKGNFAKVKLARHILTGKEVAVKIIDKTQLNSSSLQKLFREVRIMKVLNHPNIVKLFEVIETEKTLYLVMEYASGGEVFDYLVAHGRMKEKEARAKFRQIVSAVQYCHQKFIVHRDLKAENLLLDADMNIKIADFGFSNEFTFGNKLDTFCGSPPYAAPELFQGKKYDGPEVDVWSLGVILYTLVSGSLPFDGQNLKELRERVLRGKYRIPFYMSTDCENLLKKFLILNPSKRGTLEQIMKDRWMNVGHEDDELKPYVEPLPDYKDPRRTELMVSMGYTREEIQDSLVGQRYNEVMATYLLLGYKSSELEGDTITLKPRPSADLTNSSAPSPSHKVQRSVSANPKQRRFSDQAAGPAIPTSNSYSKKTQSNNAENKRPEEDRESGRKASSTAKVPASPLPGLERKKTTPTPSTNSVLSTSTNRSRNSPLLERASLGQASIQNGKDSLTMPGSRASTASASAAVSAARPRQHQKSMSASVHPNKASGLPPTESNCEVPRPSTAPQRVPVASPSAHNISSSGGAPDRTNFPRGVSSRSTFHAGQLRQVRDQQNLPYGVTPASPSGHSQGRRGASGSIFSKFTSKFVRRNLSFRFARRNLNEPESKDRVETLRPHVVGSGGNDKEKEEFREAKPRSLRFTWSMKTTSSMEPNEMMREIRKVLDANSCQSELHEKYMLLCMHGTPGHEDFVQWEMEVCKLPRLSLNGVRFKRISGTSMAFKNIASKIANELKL

RAF1 (human) = RAF1 (human) (UniProt P04049)
RPS6KA4 KD1 KD2 (human) = RPS6KA4 KD1 KD2 (human) (UniProt O75676)
AURKA (human) = AURKA (human) (UniProt O14965)
STK3 (human) = STK3 (human) (UniProt Q13188)
BMX (human) = BMX (human) (UniProt P51813)
CAMK2D (human) = CAMK2D (human) (UniProt Q13557)
HCK (human) = HCK (human) (UniProt P08631)
PRKCB2 (human) = PRKCB2 (human) (UniProt P05771)
AKT3 (human) = AKT3 (human) (UniProt Q9Y243)
SGK1 (human) = SGK1 (human) (UniProt O00141)
SGK1 (human), sequence (O00141 whole entry, looked up): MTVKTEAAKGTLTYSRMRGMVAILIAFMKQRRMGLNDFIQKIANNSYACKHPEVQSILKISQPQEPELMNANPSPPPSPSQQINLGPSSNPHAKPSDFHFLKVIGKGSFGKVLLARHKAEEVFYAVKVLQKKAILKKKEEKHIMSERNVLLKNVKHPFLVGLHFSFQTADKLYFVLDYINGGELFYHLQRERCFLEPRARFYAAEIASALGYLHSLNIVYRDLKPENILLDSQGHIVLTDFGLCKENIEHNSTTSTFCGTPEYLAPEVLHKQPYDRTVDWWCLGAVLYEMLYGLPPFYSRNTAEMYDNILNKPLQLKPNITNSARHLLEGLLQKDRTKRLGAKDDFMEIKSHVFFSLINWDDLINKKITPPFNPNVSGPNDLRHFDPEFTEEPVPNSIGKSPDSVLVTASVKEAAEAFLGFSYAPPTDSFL

MARK3 (human), sequence (P27448 whole entry, looked up): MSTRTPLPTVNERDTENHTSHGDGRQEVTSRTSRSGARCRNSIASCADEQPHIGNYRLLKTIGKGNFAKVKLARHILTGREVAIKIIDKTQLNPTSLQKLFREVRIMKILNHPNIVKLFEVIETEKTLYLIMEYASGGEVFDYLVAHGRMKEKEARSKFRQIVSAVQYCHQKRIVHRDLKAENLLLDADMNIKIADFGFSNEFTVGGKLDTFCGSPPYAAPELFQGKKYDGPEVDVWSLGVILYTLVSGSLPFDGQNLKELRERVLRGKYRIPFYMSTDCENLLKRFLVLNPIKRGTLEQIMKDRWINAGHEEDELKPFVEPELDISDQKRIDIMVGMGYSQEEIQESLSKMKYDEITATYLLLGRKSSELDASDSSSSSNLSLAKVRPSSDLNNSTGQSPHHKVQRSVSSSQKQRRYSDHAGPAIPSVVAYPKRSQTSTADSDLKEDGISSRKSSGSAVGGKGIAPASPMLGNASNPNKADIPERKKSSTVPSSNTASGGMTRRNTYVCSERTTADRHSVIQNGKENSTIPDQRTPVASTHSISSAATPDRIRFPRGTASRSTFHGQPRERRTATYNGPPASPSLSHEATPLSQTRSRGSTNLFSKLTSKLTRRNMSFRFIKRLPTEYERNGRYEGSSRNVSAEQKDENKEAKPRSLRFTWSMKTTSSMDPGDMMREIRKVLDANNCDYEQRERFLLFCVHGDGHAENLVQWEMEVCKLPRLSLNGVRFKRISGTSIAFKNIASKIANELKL
RPS6KA1 KD1 KD2 (human), sequence (Q15418 whole entry, looked up): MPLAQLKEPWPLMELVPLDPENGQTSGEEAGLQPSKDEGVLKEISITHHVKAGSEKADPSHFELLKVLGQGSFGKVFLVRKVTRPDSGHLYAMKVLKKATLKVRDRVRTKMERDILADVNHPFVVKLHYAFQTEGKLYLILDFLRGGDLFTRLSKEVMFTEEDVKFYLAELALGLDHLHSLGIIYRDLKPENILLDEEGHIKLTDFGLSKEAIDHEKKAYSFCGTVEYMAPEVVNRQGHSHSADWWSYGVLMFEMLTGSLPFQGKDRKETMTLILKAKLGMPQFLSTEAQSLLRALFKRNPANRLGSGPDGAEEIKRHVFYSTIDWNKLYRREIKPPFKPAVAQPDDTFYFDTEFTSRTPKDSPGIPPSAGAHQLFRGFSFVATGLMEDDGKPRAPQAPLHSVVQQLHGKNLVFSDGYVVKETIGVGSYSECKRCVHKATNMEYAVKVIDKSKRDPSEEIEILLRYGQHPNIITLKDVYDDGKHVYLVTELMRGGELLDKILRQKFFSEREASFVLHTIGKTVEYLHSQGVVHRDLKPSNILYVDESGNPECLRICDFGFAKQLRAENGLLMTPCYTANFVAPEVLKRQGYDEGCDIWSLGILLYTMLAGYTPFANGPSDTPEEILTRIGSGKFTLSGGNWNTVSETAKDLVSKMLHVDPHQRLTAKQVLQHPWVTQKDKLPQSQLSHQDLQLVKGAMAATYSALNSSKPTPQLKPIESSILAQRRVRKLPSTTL

Cn1cc(-c2cnc3ccc4ccc(CS(=O)(=O)NCC5CCCCN5)cc4c(=O)c3c2)cn1 (stereo unspecified)
inhibition (DYRK1A (human); compound 0.1 µM): 2.3%
inhibition (DYRK1A (human); compound 1.0 µM): 2.1%
inhibition (MARK3 (human); compound 0.1 µM): 2%
inhibition (MARK3 (human); compound 1.0 µM): -4.3%
inhibition ([1]; compound 0.1 µM): -0.3%
inhibition (MAPK3 (human); compound 0.1 µM): 7.2%
inhibition (MAPK3 (human); compound 1.0 µM): 2.8%
inhibition (CHEK1 (human); compound 0.1 µM): 1.1%
inhibition (CHEK1 (human); compound 1.0 µM): 0.4%
inhibition (RPS6KA1 KD1 KD2 (human); compound 0.1 µM): 8.6%
inhibition (RPS6KA1 KD1 KD2 (human); compound 1.0 µM): 0%
inhibition (MAPK13 (human); compound 0.1 µM): -4.9%
inhibition (GSK3B (human); compound 1.0 µM): 2%
inhibition (CSNK1A1 (human); compound 0.1 µM): -5%
inhibition (CSNK1A1 (human); compound 1.0 µM): -11%
inhibition (MAPKAPK2 (human); compound 0.1 µM): 7.6%
inhibition (MAPKAPK2 (human); compound 1.0 µM): 1.3%
inhibition (PRKCH (human); compound 0.1 µM): 3.1%
inhibition (PRKCH (human); compound 1.0 µM): 1.4%
inhibition (MAPKAPK5 (human); compound 0.1 µM): -4.3%
inhibition (MAPKAPK5 (human); compound 1.0 µM): -1.1%
inhibition (SYK (human); compound 0.1 µM): 13.6%
inhibition (SYK (human); compound 1.0 µM): 0.3%
inhibition (PRKACA (human); compound 0.1 µM): -1.4%
inhibition (PRKACA (human); compound 1.0 µM): 0.3%
inhibition (KDR (human); compound 0.1 µM): -5.2%
inhibition (KDR (human); compound 1.0 µM): 41.8%
inhibition ([2]; compound 0.1 µM): 14.9%
inhibition (EGFR (human); compound 0.1 µM): -4.8%
inhibition (MAPK11 (human); compound 0.1 µM): -1.4%
inhibition (PRKCQ (human); compound 0.1 µM): -15.1%
inhibition (PRKCQ (human); compound 1.0 µM): 2.1%
inhibition (PIM2 (human); compound 0.1 µM): 25.2%
inhibition (PIM2 (human); compound 1.0 µM): 16.7%
inhibition (LYN (human); compound 0.1 µM): 17.3%
inhibition (LYN (human); compound 1.0 µM): 9.6%
inhibition (IRAK4 (human); compound 0.1 µM): 31.2%
inhibition (IRAK4 (human); compound 1.0 µM): 40.2%
inhibition (LCK (human); compound 0.1 µM): 18.4%
inhibition (LCK (human); compound 1.0 µM): -1.2%
inhibition (MARK2 (human); compound 0.1 µM): -12.6%
inhibition (MARK2 (human); compound 1.0 µM): 2.4%
inhibition (RAF1 (human); compound 0.1 µM): 5.4%
inhibition (RAF1 (human); compound 1.0 µM): -0.8%
inhibition (RPS6KA4 KD1 KD2 (human); compound 0.1 µM): 0.2%
inhibition (RPS6KA4 KD1 KD2 (human); compound 1.0 µM): -17.3%
inhibition (AURKA (human); compound 0.1 µM): 14.5%
inhibition (AURKA (human); compound 1.0 µM): 26.8%
inhibition (STK3 (human); compound 0.1 µM): -0.1%
inhibition (STK3 (human); compound 1.0 µM): -2.7%
inhibition (BMX (human); compound 0.1 µM): -17.3%
inhibition (BMX (human); compound 1.0 µM): -2.8%
inhibition (CAMK2D (human); compound 0.1 µM): 32%
inhibition (CAMK2D (human); compound 1.0 µM): 15.1%
inhibition (HCK (human); compound 0.1 µM): -2.1%
inhibition (PRKCB2 (human); compound 0.1 µM): -4.3%
inhibition (PRKCB2 (human); compound 1.0 µM): -2.5%
inhibition (AKT3 (human); compound 0.1 µM): 2%
inhibition (SGK1 (human); compound 0.1 µM): 7.2%
inhibition (SGK1 (human); compound 1.0 µM): 9.6%

Cn1cc(-c2cnc3ccc4ccc(CS(=O)(=O)NC5CCCCC5)cc4c(=O)c3c2)cn1
inhibition (DYRK1A (human); compound 0.01 µM): -1%
inhibition (DYRK1A (human); compound 0.1 µM): 6.4%
inhibition (MARK3 (human); compound 0.01 µM): -3.5%
inhibition (MARK3 (human); compound 0.1 µM): -0.6%
inhibition ([1]; compound 0.01 µM): -3%
inhibition ([1]; compound 0.1 µM): 6.8%
inhibition (CHEK1 (human); compound 0.01 µM): 4.3%
inhibition (CHEK1 (human); compound 0.1 µM): 1.3%
inhibition (RPS6KA1 KD1 KD2 (human); compound 0.01 µM): 1.3%
inhibition (RPS6KA1 KD1 KD2 (human); compound 0.1 µM): 3.4%
inhibition (MAPK13 (human); compound 0.01 µM): -5.2%
inhibition (MAPK13 (human); compound 0.1 µM): -3%
inhibition (GSK3B (human); compound 0.01 µM): 4.9%
inhibition (GSK3B (human); compound 0.1 µM): 1.3%
inhibition (CSNK1A1 (human); compound 0.01 µM): -2.8%
inhibition (CSNK1A1 (human); compound 0.1 µM): 10.2%
inhibition (MAPKAPK2 (human); compound 0.01 µM): -0.8%
inhibition (MAPKAPK2 (human); compound 0.1 µM): -0.9%
inhibition (PRKCH (human); compound 0.01 µM): -2.5%
inhibition (PRKCH (human); compound 0.1 µM): -14.9%
inhibition (MAPKAPK5 (human); compound 0.01 µM): -2.5%
inhibition (MAPKAPK5 (human); compound 0.1 µM): 6.9%
inhibition (SYK (human); compound 0.01 µM): 1.3%
inhibition (SYK (human); compound 0.1 µM): -4.4%
inhibition (PRKACA (human); compound 0.01 µM): 2.8%
inhibition (PRKACA (human); compound 0.1 µM): -0.1%
inhibition (KDR (human); compound 0.01 µM): 3.5%
inhibition (KDR (human); compound 0.1 µM): -10%
inhibition ([2]; compound 0.01 µM): 2.2%
inhibition ([2]; compound 0.1 µM): 0.5%
inhibition (EGFR (human); compound 0.01 µM): -7.2%
inhibition (EGFR (human); compound 0.1 µM): -1%
inhibition (MAPK11 (human); compound 0.01 µM): -7.7%
inhibition (MAPK11 (human); compound 0.1 µM): 4.9%
inhibition (PRKCQ (human); compound 0.01 µM): -6.4%
inhibition (PRKCQ (human); compound 0.1 µM): -1.3%
inhibition (PIM2 (human); compound 0.01 µM): -11%
inhibition (PIM2 (human); compound 0.1 µM): 4.3%
inhibition (LYN (human); compound 0.01 µM): 9.1%
inhibition (LYN (human); compound 0.1 µM): 3.6%
inhibition (IRAK4 (human); compound 0.01 µM): -10%
inhibition (IRAK4 (human); compound 0.1 µM): 6.7%
inhibition (LCK (human); compound 0.01 µM): 8.2%
inhibition (LCK (human); compound 0.1 µM): 7.3%
inhibition (MARK2 (human); compound 0.01 µM): -2.5%
inhibition (MARK2 (human); compound 0.1 µM): -1.4%
inhibition (RAF1 (human); compound 0.01 µM): 2.2%
inhibition (RAF1 (human); compound 0.1 µM): 4.5%
inhibition (RPS6KA4 KD1 KD2 (human); compound 0.01 µM): -2.3%
inhibition (RPS6KA4 KD1 KD2 (human); compound 0.1 µM): -2.1%
inhibition (AURKA (human); compound 0.01 µM): 5.8%
inhibition (AURKA (human); compound 0.1 µM): 6.9%
inhibition (STK3 (human); compound 0.01 µM): 7.9%
inhibition (STK3 (human); compound 0.1 µM): 17.7%
inhibition (BMX (human); compound 0.01 µM): -1%
inhibition (BMX (human); compound 0.1 µM): -7.1%
inhibition (CAMK2D (human); compound 0.01 µM): 2.4%
inhibition (CAMK2D (human); compound 0.1 µM): -6.5%
inhibition (HCK (human); compound 0.01 µM): 3.5%
inhibition (HCK (human); compound 0.1 µM): 7.6%
inhibition (PRKCB2 (human); compound 0.01 µM): 1.4%
inhibition (PRKCB2 (human); compound 0.1 µM): 5.7%
inhibition (AKT3 (human); compound 0.01 µM): -2.7%
inhibition (AKT3 (human); compound 0.1 µM): 5.2%
inhibition (SGK1 (human); compound 0.01 µM): 2.1%
inhibition (SGK1 (human); compound 0.1 µM): 9.1%
